The test system of one data set is Hap-1 cells. The experiment in a line: Cell proliferation assay (IncuCyte confluence), Hap-1. The settings on record: Homo sapiens, HAP1; Hap-1 chronic myeloid leukemia; 72 h; mean of two independent experiments ± SEM; read-out: IC50 antiproliferative activity Hap-1. The class given is cell-based. The procedure:
(§1) Cancer cell lines HCT-116, NCI-H460, HL-60, K-562 and Z-138 were acquired from the American Type Culture Collection (ATCC, Manassas, VA, USA). The DND-41 cell line was purchased from the Deutsche Sammlung von Mikroorganismen und Zellkulturen (DSMZ Leibniz-Institut, Brunswick, Germany), and the HAP-1 cell line was ordered from Horizon Discovery (Horizon Discovery Group, Water Beach, UK). All cell lines were cultured as recommended by the suppliers. Culture media were purchased from Gibco Life Technologies and supplemented with 10% fetal bovine serum (HyClone, GE Healthcare Life Sciences, Chicago, Illinois, USA).
(§2) Adherent cell lines HCT-116, NCI-H460 and Hap-1 cells were seeded at a density between 500 and 1500 cells per well in 384-well tissue culture plates (Greiner). After overnight incubation, cells were treated with different concentrations of the test compounds. Suspension cell lines HL-60, K-562, Z-138 and DND-41 were seeded at densities ranging from 2500 to 5500 cells per well in 384-well culture plates containing the test compounds at the same concentration points.

In data set [1] the test system is panel of cancer cell lines. The experiment in a line: Antiproliferative activity, panel of cancer cell lines. Type of data set: cell-based. The conditions noted are these: panel of cancer cell lines. The procedure:
as §2

Another data set concerns NCI-H460 cells. The experiment in a line: Cell proliferation assay (IncuCyte confluence), NCI-H460. Type of data set: cell-based. The settings on record: Homo sapiens; NCI-H460 lung carcinoma; 72 h; mean of two independent experiments ± SEM; read-out: IC50 antiproliferative activity NCI-H460. The procedure: as §1, §2
For the next data set, the system named is K-562 cells. The experiment in a line: Cell proliferation assay (IncuCyte confluence), K-562. Type of data set: cell-based. The conditions noted are these: Homo sapiens, K562; K-562 chronic myeloid leukemia; 72 h; mean of two independent experiments ± SEM; read-out: IC50 antiproliferative activity K-562. The procedure: as §1, §2
The target of a further data set is T1, XPO1 (Homo sapiens, UniProt O14980).
T1 construct: the compounds were assayed in a reporter cell line based on the subcellular localization of a XPO1-dependent GFP reporter cargo protein; endogenous in cells; host or cells: HeLa cells stably transfected with the NLSSV40-AcGFP-NESPKI reporter (only the reporter cargo is transfected, not XPO1)
The experiment in a line: XPO1 phenotypic reporter assay in HeLa NLSSV40-AcGFP-NESPKI cells. Type of data set: cell-based. The conditions noted are these: HeLa GFP reporter cell line. The procedure: (§3) Stably transfected HeLa NLSSV40-AcGFP-NESPKI were cultured as described in Vercruysse et al.
To study the XPO1-mediated nuclear export, stably transfected HeLa NLSSV40-AcGFP-NESPKI reporter cells were seeded at 8000 cells per well in 96-well all clear tissue culture plates (TPP). After overnight incubation, cells were treated with different doses of compound or solvent (DMSO) for 2 h and then fixed and counterstained with DAPI. Fluorescence was read on an ArrayScan XTI High Content Reader (Thermo Fisher Scientific, Waltham, MA, USA). Nuclear and cytoplasmic compartments were segmented and their average pixel intensities in the green channel were quantitated employing the HCS Studio software. Genedata Screener software was used for dose-response curve fitting, and calculation of EC50 values was based on the percentage of cells having a predominant nuclear localisation (ratio of nuclear to cytoplasmic signal equal or above 1.4) of the reporter construct. Compounds were tested in two independent experiments and represented as mean ± SEM.

In another data set the test system is DND-41 cells. The experiment in a line: Cell proliferation assay (IncuCyte confluence), DND-41. The conditions noted are these: DND41; DND-41 acute lymphoblastic leukemia; 72 h; mean of two independent experiments ± SEM; read-out: IC50 antiproliferative activity DND-41. The class given is cell-based. The procedure:
as §1, §2

The test system of another data set is Z-138 cells. The experiment in a line: Cell proliferation assay (IncuCyte confluence), Z-138. Type of data set: cell-based. The settings on record: Homo sapiens; Z-138 non-Hodgkin lymphoma; 72 h; mean of two independent experiments ± SEM; read-out: IC50 antiproliferative activity Z-138. The procedure:
as §1, §2

Data set [2] is described as follows: GSH reactivity assay (HPLC, DTNB quench). The class given is physicochemical. The conditions noted are these: 500 µM compound, 5 mM GSH, 37 °C. The procedure: In order to determine if these chalcones could react with thiol groups through a hetero-Michael addition reaction, a few selected compounds (9, 10, 13 and 18) were incubated with glutathione (GSH). After different incubation times, the reactions were quenched by adding 5,5′-dithiobis(2-nitrobenzoic acid) (DTNB, Ellman´s reagent) (1:1 ratio with respect to the initial concentration of GSH). The course of the reaction was followed by HPLC, adapting reported procedures. […] Thus, although this assay is only qualitative, the tendency observed among these chalcones nicely fits the reactivity described for α-X-2´3,4,4´-tetramethylchalcones.
A 500 µM sample of the tested compound was incubated with 5 mM reduced L-glutathione for 24 h at 37 °C with a final volume of 200 μL. As a solvent system, 20 mM PBS buffer pH 7.4 with 2 mM EDTA:DMSO (1:1) was used. To perform the assay, stock solutions of 20 mM of the chalcones (9, 10, 13 and 18) and 15 mM of reduced L-glutathione were freshly prepared for every experiment and then diluted properly to give the final electrophile:nucleophile ratio (1:10). A 5 mM solution of 5,5′-dithiobis(2-nitrobenzoic acid) (DTNB) was prepared in the same solvent system to quench the reaction. After different time points (10 min, 1 h, 4 h and 24 h), an aliquot of 20 μL of the incubation mixture was quenched by adding 20 μL of the DTNB stock solution, mixed thoroughly, and then analyzed by HPLC. HPLC analysis was performed in Agilent 1120 compact LC, column ACE 5 C18-300 (15 cm × 4.6 mm); UV detection was performed at λ = 254 nm. Solvents used were acetonitrile for bottle A and H2O (containing 0.05% TFA) for bottle B, and the flow rate was 1mL/min. The gradients used were: (A) incubations with chalcone 9: from 10% to 80% of solvent A in 10 min; (B) incubations with chalcones 10 and 18: from 10% to 100% of solvent A in 10 min. The new peaks were analysed by LC-MS. As controls, a 500 μM solution of the α,β-unsaturated compound was also analysed, and a 5 mM reduced L-glutathione solution was quenched by adding DNTB at the same time points. In general, after 6 h of incubation, no GSH was detected.

Another data set has as its system HCT-116 cells. The experiment in a line: Cell proliferation assay (IncuCyte confluence), HCT-116. The settings on record: Homo sapiens; HCT-116 colorectal carcinoma; 72 h; mean of two independent experiments ± SEM; read-out: IC50 antiproliferative activity HCT-116. Type of data set: cell-based. The procedure: as §1, §2
A further data set deals with HL-60 cells. The experiment in a line: Cell proliferation assay (IncuCyte confluence), HL-60. Type of data set: cell-based. The settings on record: Homo sapiens; HL-60 acute myeloid leukemia; 72 h; mean of two independent experiments ± SEM; read-out: IC50 antiproliferative activity HL-60. The procedure:
as §1, §2

The nature of data set [3]: Stability in phosphate-buffered solution (PBS). The class given is physicochemical. The source says: It has been described by performing kinetic measurements in α-X-2′3,4,4’-tetramethylchalcones that the nature of the substituent at position α of the chalcone affects their reactivity as electrophiles versus thiol groups. In such series, the α-COOEt substituent led to a similar reactivity as that of the α-H chalcone; the α-CH3 chalcone was poorly electrophilic, while the α-CN chalcone was the most electrophilic. Thus, in the naphthyl series (Figure 3), the synthesis of the chalcones where R1 = H, COOCH3, CH3 or CN was accomplished. The reaction of 1-(naphthalen-2-yl)ethan-1-one (11) with pyrimidine-5-carbaldehyde in the presence of Ba(OH)2 afforded α-H chalcone 9 in a 55% yield (Scheme 1). […] Reaction of the ester 12 with NH3/dioxane at 110 °C [29] led to the amide 14 that was further transformed into the chalcone 15. On the other hand, reaction of naphthalene 16 with propionyl chloride under Friedel–Crafts acylation conditions, as described, provided the 2-acyl derivative 17, together with a small proportion of its 1-isomer. This mixture of isomers reacted with pyrimidine-5-carbaldehyde to yield the α-CH3 chalcone 18 (30%). Finally, the synthesis of the α-CN derivative was addressed by the reaction of 2-methylnaphthoate (19) with acetonitrile to provide 3-oxopropanenitrile 20 [32], which was further transformed into the α-CN chalcone 21.

In data set [4] the target is T2, XPO1^C528S (Jurkat XPO1^C528S) (Homo sapiens, UniProt O14980, C528S).
T2 construct: CRISPR/Cas9 genome editing of the Jurkat cell line was performed as in Neggers et al. [43] to generate a XPO1^C528S mutant cell line; endogenous in cells; host or cells: Jurkat cells genome-edited by CRISPR/Cas9 at the XPO1 locus (XPO1^C528S)
The experiment in a line: RanBP1 immunofluorescence (XPO1-mediated nuclear export) in mutant XPO1^C528S Jurkat cells. The conditions noted are these: positive control at 1 μM, 3 h. The class given is cell-based. The procedure:
(§4) The effect of the mutation on the activity of the inhibitors was assessed by the visualization of the subcellular localization of the XPO1 cargo RanBP1.
as §3
(§5) Cells were harvested at 400× g, washed in PBS and then transferred into an 8-well µ-Slide (Ibidi) pretreated with 0.1% (w/v) poly-L-lysine (Sigma). Cells were allowed to adhere to the slides and then subsequently fixed (4% PFA in PBS), washed and permeabilized (0.2% Triton X-100 in PBS). Further immunofluorescence staining was then performed according to standard procedures. Employed antibodies were rabbit anti-RanBP1 (ab97659, Abcam, Cambridge, UK) at a 1:500 dilution and secondary Alexa Fluor 488 goat anti-rabbit antibody (A11008, Invitrogen, ThermoFisher Scientific). Cell nuclei were counterstained with DAPI, and the samples were imaged by confocal microscopy on a Leica TCS SP5 confocal microscope (Leica Microsystems, Weitzlar, Germany), employing a HCX PL APO 63× (NA 1.2) water immersion objective. Subsequently, fluorescence was read on an ArrayScan XTI High Content Reader (Thermo Fisher Scientific, Waltham, MA, USA). Nuclear and cytoplasmic compartments were segmented, and their average pixel intensities in the green channel were quantitated similarly as for the XPO1 phenotypic reporter assay.

A further data set deals with T3, XPO1 (Jurkat XPO1^WT) (Homo sapiens, UniProt O14980).
T3 construct: RanBP1 immunofluorescence staining was performed on both wild type and mutant XPO1^C528S Jurkat cells; endogenous in cells; host or cells: wild-type Jurkat leukemia cells
The experiment in a line: RanBP1 immunofluorescence (XPO1-mediated nuclear export) in wild-type Jurkat cells. The settings on record: positive control at 1 μM, 3 h. Type of data set: cell-based. The procedure:
as §4, §3, §5

Some results are limits rather than exact numbers.

T1 sequence (O14980 whole entry): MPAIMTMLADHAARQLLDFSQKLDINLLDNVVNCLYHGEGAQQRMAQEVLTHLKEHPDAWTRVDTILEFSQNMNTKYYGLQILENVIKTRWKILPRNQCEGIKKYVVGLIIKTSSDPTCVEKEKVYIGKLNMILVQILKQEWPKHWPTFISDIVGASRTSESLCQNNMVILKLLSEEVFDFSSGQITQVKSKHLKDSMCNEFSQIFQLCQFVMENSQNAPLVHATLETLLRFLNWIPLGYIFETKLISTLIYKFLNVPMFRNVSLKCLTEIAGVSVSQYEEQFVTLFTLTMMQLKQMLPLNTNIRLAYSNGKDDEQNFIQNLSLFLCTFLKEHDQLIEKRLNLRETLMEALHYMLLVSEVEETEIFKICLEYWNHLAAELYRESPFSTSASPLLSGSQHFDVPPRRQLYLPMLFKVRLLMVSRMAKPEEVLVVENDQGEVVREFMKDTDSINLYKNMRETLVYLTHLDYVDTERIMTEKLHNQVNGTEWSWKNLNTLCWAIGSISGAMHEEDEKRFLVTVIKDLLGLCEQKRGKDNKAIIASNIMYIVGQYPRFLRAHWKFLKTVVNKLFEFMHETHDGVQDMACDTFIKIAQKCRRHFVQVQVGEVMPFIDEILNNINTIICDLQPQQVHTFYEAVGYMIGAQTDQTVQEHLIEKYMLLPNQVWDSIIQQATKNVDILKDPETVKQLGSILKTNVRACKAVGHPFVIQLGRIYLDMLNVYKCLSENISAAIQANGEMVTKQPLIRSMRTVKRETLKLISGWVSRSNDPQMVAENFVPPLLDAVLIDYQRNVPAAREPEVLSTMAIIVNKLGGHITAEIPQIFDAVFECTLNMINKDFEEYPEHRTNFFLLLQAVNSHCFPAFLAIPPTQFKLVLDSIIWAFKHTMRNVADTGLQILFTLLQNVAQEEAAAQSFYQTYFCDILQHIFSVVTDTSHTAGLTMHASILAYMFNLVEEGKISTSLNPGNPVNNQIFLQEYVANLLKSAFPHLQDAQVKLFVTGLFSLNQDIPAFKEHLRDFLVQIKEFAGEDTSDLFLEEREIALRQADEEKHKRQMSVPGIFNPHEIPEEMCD
T2 sequence (O14980 whole entry C528S): as the sequence (O14980 whole entry) above, with C528S counted along it

The compound `COC(=O)/C(=C/c1cncnc1)C(=O)c1ccc2ccccc2c1` [Compound 13, (E)-2-Methoxycarbonyl-1-(naphthalene-2-yl)-3-(pyrimidin-5-yl)prop-2-en-1-one] showed a melting point of 161 to 163 °C. In the data set with Hap-1 cells, the IC50 was at least 54900 nM. The “Antiproliferative activity, in words” value in data set [1] is “almost inactive”. Moreover, the IC50 in the data set with NCI-H460 cells is at least 47100 nM. Moreover, in the data set on K-562 cells, the IC50 is over 100000 nM. For the same compound, the “XPO1 inhibition, in words” value at XPO1 was “inactive against XPO1”. Moreover, the IC50 at XPO1 (2 h treatment, mean ± SEM of two independent experiments, read-out: XPO1 inhibition IC50) was over 100000 nM. Moreover, the IC50 with DND-41 cells was at least 30600 nM. For the same compound, the IC50 in the data set with Z-138 cells is over 100000 nM. Besides, in data set [2] (PBS pH 7.4 with EDTA:DMSO 1:1), the “Reaction with GSH (hetero-Michael addition), qualitative” value is reported as “provided the Michael adducts with GSH after a short reaction time”. Moreover, the “Reversibility of GSH adducts (retro-Michael), qualitative” value in [2] (longer incubation) was “adducts reverted to the parent chalcone”. Besides, in the data set on HCT-116 cells, the IC50 was at least 15500 nM. Further, in the data set with HL-60 cells, the IC50 was over 100000 nM.

For `N#C/C(=C\c1cncnc1)C(=O)c1ccc2ccccc2c1` [Compound 21, (E)-2-Cyano-1-(naphthalene-2-yl)-3-(pyrimidin-5-yl)prop-2-en-1-one], in [3], the “Stability in PBS” value was “very unstable and readily decomposed”.

On to `O=C(/C=C\n1cnc(-c2cc(C(F)(F)F)cc(C(F)(F)F)c2)n1)NNc1cnccn1` [KPT-330, selinexor, reference compound], for which the IC50 with Hap-1 cells is 70 ± 30 nM; in the data set on NCI-H460 cells, 120 ± 80 nM; with K-562 cells, 90 nM; in the data set on DND-41 cells, 50 nM; in the data set on Z-138 cells it was 400 ± 400 nM; in the data set with HCT-116 cells, 100 ± 100 nM. In addition, in the data set on HL-60 cells, the IC50 was found to be 110 ± 100 nM. Moreover, the “Subcellular localization of RanBP1, mutant XPO1^C528S Jurkat” value in data set [4] is given as “RanBP1 remained in the cytoplasm”. Moreover, the “Subcellular localization of RanBP1, wild-type Jurkat” value on XPO1 (Jurkat XPO1^WT) is on record as “RanBP1 was accumulated in the nucleus”.

The record behind these values is article PMC8621101, “Inhibition of XPO-1 Mediated Nuclear Export through the Michael-Acceptor Character of Chalcones” (Pharmaceuticals, 2021).
